Data as given in ChEMBL document CHEMBL3525932, “Comparison of metabolism of sesamin and episesamin by drug-metabolizing enzymes in human liver” (Drug Metab Dispos, 2012).

Tests used:
Liver microsome = experiment: Drug metabolism in human liver microsomes assessed as sesamin monocatechol formation after 30 mins by HPLC analysis in presence of NADPH; type: ADME; conditions: 0.5 h
[1] = Drug metabolism in human liver microsomes assessed as CYP450-mediated catecholization per mg of protein after 10 to 30 mins by HPLC analysis in presence of NADPH; type: ADME
CYP450 [2] = experiment: Drug metabolism in human liver microsomes assessed as CYP450-mediated catecholization after 10 to 30 mins by HPLC analysis in presence of NADPH; type: ADME
[3] = Drug metabolism in Sprague-Dawley rat liver microsomes assessed as CYP450-mediated catecholization per mg of protein after 10 to 30 mins by HPLC analysis in presence of NADPH; type: ADME
CYP2C9 = CYP2C9 (Homo sapiens, UniProt P11712); experiment: Ratio of Kinact to Ki(app) for mechanism-based inhibition of recombinant human CYP2C9 expressed in microsomes isolated from Saccharomyces cerevisiae AH22 cells assessed as diclofenac 4'-hydroxylation preincubated for 5 to 10 mins followed by substrate addition measured after 15 mins by HPLC analysis; type: ADME, cell-based; conditions: probe diclofenac (4'-hydroxylation)
CYP450 [4] = experiment: Drug metabolism in Sprague-Dawley rat liver microsomes assessed as CYP450-mediated catecholization after 10 to 30 mins by HPLC analysis in presence of NADPH; type: ADME
Cytochrome P450 2C19 = Cytochrome P450 2C19 (Homo sapiens, UniProt P33261); experiment: Activity of recombinant human CYP2C19 expressed in Saccharomyces cerevisiae AH22 cells assessed as enzyme-mediated sesamin dicatechol/monocatechol formation at 2 to 20 uM after 15 mins by HPLC analysis in presence of NADPH; type: ADME, cell-based; conditions: ah22, 0.25 h
Cytochrome P450 2C19, sequence (P33261 whole entry): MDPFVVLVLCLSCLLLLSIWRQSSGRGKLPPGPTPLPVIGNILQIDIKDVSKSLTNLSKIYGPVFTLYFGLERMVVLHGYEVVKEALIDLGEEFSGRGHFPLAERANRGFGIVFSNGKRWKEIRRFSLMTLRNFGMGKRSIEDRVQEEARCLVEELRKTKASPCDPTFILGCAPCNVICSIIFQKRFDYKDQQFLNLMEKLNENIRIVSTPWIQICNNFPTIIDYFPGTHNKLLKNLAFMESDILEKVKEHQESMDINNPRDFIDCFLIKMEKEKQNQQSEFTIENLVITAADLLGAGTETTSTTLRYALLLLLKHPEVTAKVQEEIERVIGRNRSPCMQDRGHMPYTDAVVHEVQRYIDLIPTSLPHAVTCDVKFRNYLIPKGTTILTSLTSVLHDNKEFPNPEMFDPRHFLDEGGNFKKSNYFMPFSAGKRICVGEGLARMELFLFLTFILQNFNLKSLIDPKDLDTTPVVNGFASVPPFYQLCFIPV

CYP2C9, sequence (P11712 whole entry): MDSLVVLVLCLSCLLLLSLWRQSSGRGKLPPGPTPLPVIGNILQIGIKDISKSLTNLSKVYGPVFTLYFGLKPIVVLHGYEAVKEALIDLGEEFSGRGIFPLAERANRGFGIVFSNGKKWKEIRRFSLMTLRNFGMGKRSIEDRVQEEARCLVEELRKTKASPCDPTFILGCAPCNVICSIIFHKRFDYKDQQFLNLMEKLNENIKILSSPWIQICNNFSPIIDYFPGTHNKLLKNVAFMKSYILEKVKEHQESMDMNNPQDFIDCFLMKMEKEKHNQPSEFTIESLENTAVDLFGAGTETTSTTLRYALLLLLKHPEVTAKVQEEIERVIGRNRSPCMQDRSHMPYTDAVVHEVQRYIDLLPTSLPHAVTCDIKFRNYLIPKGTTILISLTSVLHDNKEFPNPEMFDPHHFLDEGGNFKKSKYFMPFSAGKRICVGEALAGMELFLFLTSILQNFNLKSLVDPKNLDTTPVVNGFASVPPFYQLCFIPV

With `c1cc2c(cc1[C@H]1OC[C@H]3[C@@H]1CO[C@@H]3c1ccc3c(c1)OCO3)OCO2` [SESAMIN] the Drug metabolism (Liver microsome) was “metabolite_detected”, the Vmax [1] was 0.81 nmol/min/mg and the Km (CYP450 [2]) was 7.7 µM. For the same compound, the Vmax [3] was 4.8 nmol/min/mg, the kinact/KI at 0.25 h (CYP2C9) was 2330 M⁻¹ s⁻¹ and the Km (CYP450 [4]) was 7.1 µM. The Drug metabolism (Cytochrome P450 2C19) was “metabolite_detected”.
